Source: paper PMC7356228, “Alvaxanthone, a Thymidylate Synthase Inhibitor with Nematocidal and Tumoricidal Activities” (Molecules, 2020)
Read-outs that look alike come from different tables or passages of the source.

Legend:
[1] = tested on: normal human gingival fibroblasts (HGF); set-up: method as in Hou et al. [41]; conditions: 24 h incubation; ref Hou et al. [41]; cited from earlier work
C. elegans = experiment: Toxicity to C. elegans (population growth); conditions: Caenorhabditis elegans, read-out: LC50 (reduction of growth of the nematode population)
Experimental: C. elegans was maintained as previously described. The effect of the compounds studied on C. elegans population growth was determined as earlier presented.

SCC-15 cells [2] = experiment: Tetrazolium salts reduction (XTT) assay; type: cell-based, human
Experimental: (§1) Biological effect of alvaxanthone and rheediaxanthone B on normal (BJ) and cancer cells (U-118 MG and SCC-15) was estimated using two viability assays, the neutral red uptake (NR) and tetrazolium salts reduction (XTT) assays.
(§2) Thus, alvaxanthone may be damaging mitochondria and impairing their metabolism exerting one of possible mechanisms active in destroying cancer cells. Changes of cell morphology in dependence on increasing alvaxanthone and rheediaxanthone B concentration were also recorded. While the glioma and squamous carcinoma cells formed clusters, lost their adhesion, shrank, and accumulated less NR dye, normal fibroblasts preserved rather normal shapes but the amount of the neutral red dye and confluence of cells decreased. In addition, a lower number of BJ cells was detected (Figure 1B).
(§3) Influence of selected compounds on cells was tested by performing the cytotoxicity (NR and XTT) assays, proliferation assay, cell adhesion assay, cell migration assay, determination of intracellular ATP level, and apoptosis assay as previously reported.

U-118 MG cells [3] = experiment: Tetrazolium salts reduction (XTT) assay; type: cell-based, human; conditions: U-118 MG vs BJ, 48 h
Experimental: as §1, §2, §3

[4] = tested on: thymidylate synthase (TS); experiment: Time dependence of TS inhibition (initial results); type: biochemical; conditions: suggesting slow-binding character
Description: (§4) The recombinant human, rat, mouse, T. spiralis and C. elegans TS proteins were produced, purified and separated into phosphorylated and non-phosphorylated fraction, as previously described. TS activity was monitored, following tritium release from [5-^3H]dUMP, and its inhibition studied as earlier reported.

hTS = target: T1, hTS (Homo sapiens, UniProt P04818); experiment: Inhibition of TS-catalyzed reaction (tritium release from [5-3H]dUMP); type: biochemical
T1 construct: made in house
Description: as §4

mTS = target: T2, mTS (Mus musculus, UniProt P07607); experiment: as above; type: biochemical; conditions: 20 µM dUMP, 250 µM meTHF
T2 construct: made in house
Description: as §4

CeTS = target: T3, CeTS (Caenorhabditis elegans, UniProt Q9Y052); experiment: as above; type: biochemical, C. elegans; conditions: 20 µM dUMP, 250 µM meTHF
T3 sequence (Q9Y052 1-315): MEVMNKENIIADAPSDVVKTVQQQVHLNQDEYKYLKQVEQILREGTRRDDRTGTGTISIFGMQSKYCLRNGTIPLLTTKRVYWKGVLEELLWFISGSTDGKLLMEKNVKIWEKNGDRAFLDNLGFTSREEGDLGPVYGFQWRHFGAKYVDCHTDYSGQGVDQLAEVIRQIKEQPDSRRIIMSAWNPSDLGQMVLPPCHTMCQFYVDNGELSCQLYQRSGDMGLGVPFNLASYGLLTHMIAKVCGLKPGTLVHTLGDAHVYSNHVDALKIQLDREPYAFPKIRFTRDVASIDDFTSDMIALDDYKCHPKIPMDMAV
Description: as §4

[5] = tested on: human oral squamous carcinoma cells (HSC-2 cell line); set-up: method as in Hou et al. [41]; conditions: 24 h incubation; ref Hou et al. [41]; cited from earlier work
SCC-15 cells [6] = experiment: Proliferation (CyQUANT GR, total cellular DNA content); type: cell-based, human; conditions: 40 μM, 72 h, BJ vs SCC-15
Experimental: (§5) The influence of alvaxanthone and rheediaxanthone B on cell proliferation (Figure 2) was assessed by quantitative measurement of the total cellular DNA content, proportional to the cell number.
(§6) Figure 2 Proliferation of cancer (U-118 MG and SCC-15) and normal (BJ) cells after 72 h incubation with 5–40 μM alvaxanthone or 1.25–40 μM rheediaxanthone B, determined with the CyQUANT GR Cell Proliferation Assay Kit. Median results are presented of three independent experiments, each performed in triplicate. The whiskers are lower (25%) and upper (75%) quartile ranges. […] Images collected with Olympus IX-83 microscope with contrast phase (scale bar = 100 µm).
as §3

U-118 MG cells [7] = experiment: as above; type: cell-based, human; conditions: 40 μM, 72 h, BJ vs U-118 MG
Experimental: as §5, §6, §3

TsTS = TsTS (Trichinella spiralis, UniProt Q9NDD3); experiment: Inhibition of TS-catalyzed reaction (tritium release from [5-3H]dUMP); type: biochemical, T. spiralis; conditions: for remaining activity at 10 µM: compound 10 µM; for remaining activity at 10 µM / remaining activity at 100 µM: 20 µM dUMP; for remaining activity at 100 µM: compound 100 µM
Description: as §4

SCC-15 cells [8] = experiment: Intracellular ATP level (CellTiterGlo); type: cell-based, human; conditions: 48-h incubation, SCC-15
Experimental: (§7) Figure 4 Changes of caspase-3/7 activities and intracellular ATP level in BJ, U-118 MG, and SCC-15 cells after 48-h incubation with 5–40 µM alvaxanthone or rheediaxanthone B. Median results are presented of three independent experiments, each performed in triplicate. The whiskers are lower (25%) and upper (75%) quartile ranges.
(§8) On the other hand, rheediaxanthone B caused a reduction of ATP level down to around 30% in glioma cells and fibroblasts, and to 20% in squamous carcinoma cells (Figure 4). In general, with increasing Caspase-3/7 activity the ATP level was decreasing, in accord with the results of Reference.
as §3

U-118 MG cells [9] = experiment: Intracellular ATP level (CellTiterGlo); type: cell-based, human; conditions: 48-h incubation, glioma cells
Experimental: as §7, §8, §3

BJ cells = experiment: Intracellular ATP level (CellTiterGlo); type: cell-based, human; conditions: 48-h incubation, normal fibroblasts
Experimental: as §7, §8, §3

[10] = tested on: caspases 3/7 in BJ, U-118 MG, and SCC-15 cells; experiment: Apo-ONE Homogenous Caspase-3/7 Assay; type: cell-based, human; conditions: 48 h, 5–40 µM, span over the three cell lines
Experimental: as §7
The Apo-ONE® Homogenous Caspase-3/7 Assay provides a measurement of the executioner caspases 3/7 activation, characteristic for apoptosis induced via both the intrinsic and extrinsic pathway. It was used to determine apoptosis induction in cells by alvaxanthone and rheediaxanthone B. In each of the three cell lines, compared to the respective non-treated control, treatment with each of the two compounds for 48 h led to a significant activation of the caspases 3/7 (by 2- to 10-fold for alvaxanthone and 8- to 18-fold for rheediaxanthone B), the effect being stronger in cancer than normal cells (Figure 4).
as §3

[11] = compound 100 µM, read-out: % Remaining Activity

T1 sequence (P04818 whole entry): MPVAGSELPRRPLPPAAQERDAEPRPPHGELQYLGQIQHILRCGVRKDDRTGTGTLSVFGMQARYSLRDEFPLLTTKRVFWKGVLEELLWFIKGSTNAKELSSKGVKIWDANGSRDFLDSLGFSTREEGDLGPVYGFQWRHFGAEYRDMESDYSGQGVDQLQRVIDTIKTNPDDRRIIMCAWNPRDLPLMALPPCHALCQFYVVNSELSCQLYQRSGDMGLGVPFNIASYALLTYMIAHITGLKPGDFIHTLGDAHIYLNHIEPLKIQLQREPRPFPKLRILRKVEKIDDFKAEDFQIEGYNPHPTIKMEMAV
Chain of TsTS (Q9NDD3 entry or part of it): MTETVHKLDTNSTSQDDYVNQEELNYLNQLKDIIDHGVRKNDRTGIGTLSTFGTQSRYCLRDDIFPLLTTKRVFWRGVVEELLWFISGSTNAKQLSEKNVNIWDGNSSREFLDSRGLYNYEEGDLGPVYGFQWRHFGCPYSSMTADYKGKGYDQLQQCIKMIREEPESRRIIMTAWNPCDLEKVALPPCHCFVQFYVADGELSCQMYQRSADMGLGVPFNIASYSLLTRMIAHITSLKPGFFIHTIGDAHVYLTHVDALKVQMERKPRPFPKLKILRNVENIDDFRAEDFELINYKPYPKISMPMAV
T2 sequence (P07607 whole entry): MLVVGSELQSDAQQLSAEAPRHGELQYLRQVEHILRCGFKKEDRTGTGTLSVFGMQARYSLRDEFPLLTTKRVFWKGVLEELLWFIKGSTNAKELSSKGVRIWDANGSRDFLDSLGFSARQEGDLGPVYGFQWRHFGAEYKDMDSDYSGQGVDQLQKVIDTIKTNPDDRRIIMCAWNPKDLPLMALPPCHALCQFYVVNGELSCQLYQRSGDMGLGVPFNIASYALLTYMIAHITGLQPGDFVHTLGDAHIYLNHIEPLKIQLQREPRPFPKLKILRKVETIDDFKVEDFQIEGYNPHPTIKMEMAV

SMILES: C=CC(C)(C)c1c(O)cc2oc3c(O)c(O)cc(CC=C(C)C)c3c(=O)c2c1O [Alvaxanthone (15), Alvaxanthone]
- IC50 [1]: 25 µM
- LC50 (C. elegans): 4.6 ± 0.57 µM
- IC50 (SCC-15 cells [2]; Homo sapiens, SCC-15): 17 µM
- selectivity: more sensitive compared to BJ fibroblasts (SCC-15 cells [2]; SCC-15 vs BJ, 48 h): 5.3 fold
- selectivity: more sensitive compared to BJ fibroblasts (U-118 MG cells [3]): 2.7 fold
- character of inhibition [4]: time-dependent inhibition
- IC50 (hTS; 20 µM dUMP and 50 µM meTHF, mean ± S.E.M. (N=3) for alvaxanthone, rheediaxanthone B not repeated, read-out: IC50): 6.3 ± 1.6 µM
- IC50 (hTS; 20 µM dUMP, 250 µM meTHF, read-out: IC50 Assessment): < 10 µM
- remaining activity at 10 µM (hTS; compound 10 µM, 20 µM dUMP, 250 µM meTHF): 39%
- remaining activity at 10 µM (mTS; compound 10 µM): 79%
- remaining activity at 100 µM (mTS; [11]): 40%
- remaining activity at 10 µM (CeTS; compound 10 µM): 85%
- remaining activity at 100 µM (CeTS; [11]): 18%
- IC50 [5]: 22 µM
- proliferation inhibition weaker with normal (BJ) than cancer cells (SCC-15 cells [6]): 5.8 fold
- proliferation inhibition weaker with normal (BJ) than cancer cells (U-118 MG cells [7]): 2.3 fold
- IC50 (TsTS; IC50, 20 µM dUMP and 50 µM meTHF, mean ± S.E.M. (N=3) for alvaxanthone, rheediaxanthone B not repeated): 41.9 ± 8.1 µM
- remaining activity at 10 µM (TsTS; 50 µM meTHF): 97%
- remaining activity at 10 µM (TsTS; 250 µM meTHF): 98%
- remaining activity at 100 µM (TsTS; 50 µM meTHF): 14%
- remaining activity at 100 µM (TsTS; 250 µM meTHF): 47%
- change of ATP level (SCC-15 cells [8]): dramatically reduced
- change of ATP level (U-118 MG cells [9]): unaltered
- change of ATP level (BJ cells): slight decrease
- activation of the caspases 3/7 compared to non-treated control [10]: 2- to 10 fold
